Laboratory results: PMC12305296, “Repurposing of FDA‐Approved Drugs to Disrupt Iron Uptake in Mycobacterium abscessus: Targeting Salicylate Synthase as a Novel Approach” (Chemical Biology & Drug Design, 2025)
≈ marks a conversion by molar mass, not a printed value.

Tests used:
recombinant Mab‐SaS [1] = biological target: T1, recombinant Mab‐SaS (Mycobacteroides abscessus, UniProt B1MAQ5); experiment: Mab‐SaS enzyme inhibition, direct fluorometric assay; type: biochemical, Mycobacterium abscessus; conditions: for remaining activity at 100 µM: read-out: residual activity at 100 μM (%); for Ki: steady‐state kinetics, competitive inhibition equation; for mode of inhibition towards CHO: reciprocal plots of steady‐state kinetics; for inhibition at 100 µM: read-out: inhibition of Mab‐SaS at 100 μM
T1 sequence (B1MAQ5 entry or part of it): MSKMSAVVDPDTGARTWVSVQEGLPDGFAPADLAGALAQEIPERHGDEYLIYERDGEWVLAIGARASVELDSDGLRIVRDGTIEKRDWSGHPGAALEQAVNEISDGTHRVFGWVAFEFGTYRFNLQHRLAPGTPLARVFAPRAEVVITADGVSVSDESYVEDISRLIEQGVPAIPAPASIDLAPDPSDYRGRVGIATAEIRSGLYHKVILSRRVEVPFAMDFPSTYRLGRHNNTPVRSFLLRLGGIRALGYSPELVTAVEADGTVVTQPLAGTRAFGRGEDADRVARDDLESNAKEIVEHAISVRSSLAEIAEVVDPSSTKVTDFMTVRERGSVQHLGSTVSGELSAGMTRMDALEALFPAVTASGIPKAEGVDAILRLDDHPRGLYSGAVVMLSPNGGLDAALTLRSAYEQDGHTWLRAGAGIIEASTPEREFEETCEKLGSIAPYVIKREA
Method: The recombinant Mab‐SaS was expressed in E. coli and purified as previously reported (Mori et al. [2023]). Enzyme activity was determined by a direct fluorometric assay (Mori et al. [2020]). Briefly, the assays were performed in 400 μL of 50 mM potassium phosphate pH 8.0, containing 5 mM MgCl2, and 1–2 μM Mab‐SaS. The reaction was started by the addition of CHO and monitored using a PerkinElmer LS3 fluorimeter (Ex. λ = 305 nm, Em. λ = 410 nm; PerkinElmer, Waltham, MA, USA).
The compounds identified by the in silico investigations were purchased from CymitQuimica S.L. and dissolved at a concentration of 20 mM in dimethylsulfoxide (DMSO) or water, according to their solubility. Specifically, gentamycin, cytidine, amifostine, and hydroxystilbamidine were dissolved in water, while esomeprazole, fostamatinib, S‐adenosyl‐L‐homocysteine, norepinephrine, labetalol, levolansoprazole, and nebivolol were dissolved in DMSO.
The inhibitory activity of the candidates was initially evaluated at a final concentration of 100 μM, using a subsaturating concentration of the substrate (CHO) of 70 μM. […] IC50 was calculated by measuring enzymatic activity in the presence of different compound concentrations, using (Equation 1), where A[I] is the enzyme activity at inhibitor concentration [I] and A[0] is the enzyme activity without inhibitor. (1) AI=A0×1−I/I+IC50
The inhibition constant values (K i) were determined by assaying Mab‐SaS at different substrate and compound concentrations and using an adapted equation for competitive inhibition (Equation 2) with GraphPad 8.0 software. (2) v=VmaxS/S+Km1+I/Ki

recombinant Mab‐SaS [2] = biological target: T1, recombinant Mab‐SaS; experiment: PAINS control assays (BSA, Triton X‐100, DTT) on Mab‐SaS inhibition; type: biochemical, Mycobacterium abscessus; conditions: for inhibition in presence of BSA and Triton X‐100 (aggregation check): 0.1 mg/mL BSA or 0.01% (v/v) Triton X‐100; for effect of DTT on inhibition (cysteine reactivity check): 100 mM DTT
M. smegmatis mc^2155 = experiment: REMA antimycobacterial assay in iron‐limiting chelated Sauton's medium; type: cell-based; conditions: Mycolicibacterium smegmatis, iron‐limiting conditions
Method: Antimycobacterial activity of the best compounds was evaluated by REMA assay in iron‐limiting chelated Sauton's medium on M. smegmatis MC^2 155 (Siegrist et al. [2009]; Mehra and Philips [2014]). This microorganism is widely used as a non‐pathogenic model for Mab, since it shares similar biological characteristics and replicates more rapidly than other mycobacteria. By using this non‐pathogenic microorganism, we could efficiently study processes related to Mab, while minimizing the hazards and technical difficulties of working directly with a pathogenic strain.

NCCCNCCSP(=O)(O)O [Amifostine]
remaining activity at 100 µM (recombinant Mab‐SaS [1]): 78.1 ± 3.2%

Nc1ccn([C@@H]2O[C@H](CO)[C@@H](O)[C@H]2O)c(=O)n1 [Cytidine]
remaining activity at 100 µM (recombinant Mab‐SaS [1]): 88.8 ± 2.5%

COc1ccc2nc([S@@+]([O-])Cc3ncc(C)c(OC)c3C)[nH]c2c1 [Esomeprazole]
IC50 (recombinant Mab‐SaS [1]): 13.6 ± 1.1 µM | inhibition of Mab‐SaS at 100 μM (recombinant Mab‐SaS [1]; 100 μM compound, 70 μM CHO): completely blocked the enzymatic activity | Ki (recombinant Mab‐SaS [1]): 3.7 ± 0.4 µM | remaining activity at 100 µM (recombinant Mab‐SaS [1]): 3.3 ± 1.7% | mode of inhibition towards CHO (recombinant Mab‐SaS [1]): competitive | inhibition in presence of BSA and Triton X‐100 (aggregation check) (recombinant Mab‐SaS [2]): inhibited the enzyme | effect of DTT on inhibition (cysteine reactivity check) (recombinant Mab‐SaS [2]): no impact on the inhibition

COc1cc(Nc2ncc(F)c(Nc3ccc4c(n3)N(COP(=O)(O)O)C(=O)C(C)(C)O4)n2)cc(OC)c1OC [Fostamatinib]
IC50 (recombinant Mab‐SaS [1]): 21 ± 1.3 µM | inhibition of Mab‐SaS at 100 μM (recombinant Mab‐SaS [1]; 100 μM compound, 70 μM CHO): completely blocked the enzymatic activity | residual activity at 100 μM (%) (recombinant Mab‐SaS [1]; 100 μM compound, 70 μM CHO, Mean ± SD of three experiments): 11.6 ± 0.7% | Ki (recombinant Mab‐SaS [1]): 11.7 ± 0.7 µM | mode of inhibition towards CHO (recombinant Mab‐SaS [1]): competitive | inhibition in presence of BSA and Triton X‐100 (aggregation check) (recombinant Mab‐SaS [2]): inhibited the enzyme | effect of DTT on inhibition (cysteine reactivity check) (recombinant Mab‐SaS [2]): no impact on the inhibition

CNC(C)C1CCC(N)C(OC2C(N)CC(N)C(OC3OCC(C)(O)C(NC)C3O)C2O)O1 (stereo not shown) [Gentamycin]
inhibition of Mab‐SaS at 100 μM (recombinant Mab‐SaS [1]; 100 μM compound, 70 μM CHO): did not exhibit any inhibitory effect | remaining activity at 100 µM (recombinant Mab‐SaS [1]): 98.8 ± 5.7%

N=C(N)c1ccc(/C=C/c2ccc(C(=N)N)cc2O)cc1 [Hydroxystilbamidine]
IC50 (recombinant Mab‐SaS [1]): 11.5 ± 1.1 µM | inhibition of Mab‐SaS at 100 μM (recombinant Mab‐SaS [1]; 100 μM compound, 70 μM CHO): completely blocked the enzymatic activity | Ki (recombinant Mab‐SaS [1]): 5.4 ± 0.5 µM | remaining activity at 100 µM (recombinant Mab‐SaS [1]): 0.5 ± 0.3% | mode of inhibition towards CHO (recombinant Mab‐SaS [1]): competitive | MIC (M. smegmatis mc^2155): 250 µM (≈ 70.1 µg/mL) | inhibition in presence of BSA and Triton X‐100 (aggregation check) (recombinant Mab‐SaS [2]): inhibited the enzyme | effect of DTT on inhibition (cysteine reactivity check) (recombinant Mab‐SaS [2]): no impact on the inhibition

CC(CCc1ccccc1)NCC(O)c1ccc(O)c(C(N)=O)c1 (stereo not shown) [Labetalol]
inhibition at 100 µM (recombinant Mab‐SaS [1]): ~53% | remaining activity at 100 µM (recombinant Mab‐SaS [1]): 47 ± 2.1%

Cc1c(OCC(F)(F)F)ccnc1C[S@+]([O-])c1nc2ccccc2[nH]1 [Levolansoprazole]
inhibition at 100 µM (recombinant Mab‐SaS [1]): ~37% | remaining activity at 100 µM (recombinant Mab‐SaS [1]): 62.8 ± 1.7%

OC(CNCC(O)C1CCc2cc(F)ccc2O1)C1CCc2cc(F)ccc2O1 (stereo not shown) [Nebivolol]
remaining activity at 100 µM (recombinant Mab‐SaS [1]): 82.3 ± 1.3%

NC[C@H](O)c1ccc(O)c(O)c1 [Norepinephrine]
inhibition at 100 µM (recombinant Mab‐SaS [1]): ~24% | remaining activity at 100 µM (recombinant Mab‐SaS [1]): 75.5 ± 1.4%

Nc1ncnc2c1ncn2[C@@H]1O[C@H](CSCC[C@H](N)C(=O)O)[C@@H](O)[C@H]1O [S‐adenosyl‐L‐homocysteine]
remaining activity at 100 µM (recombinant Mab‐SaS [1]): 102 ± 3.8%
